Experimental data reported in ChEMBL document CHEMBL1201861, “Genomics of Drug Sensitity in Cancer screening data, Wellcome Trust Sanger Institute”.

Test system: MDA-MB-175-VII
Test: cells
Assay type: functional, cell-based, Homo sapiens
Conditions: Homo sapiens, MDA-MB-175-VII

Structure (SMILES)	IC50
CC(C)c1ccccc1Cc1cc(C(=O)Nc2ccc(S(=O)(=O)c3ccccc3C(C)(C)C)cc2)c(O)c(O)c1O	0.451 µM
CC1(C)CNc2cc(NC(=O)c3cccnc3NCc3ccncc3)ccc21 [MOTESANIB]	> 2 µM

Test system: YAPC;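 also: growth inhibition of YAPC cells, measured with a cell viability assay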
Test: cells
Assay type: functional, cell-based, Homo sapiens
Conditions: Homo sapiens, YAPC
Description: SANGER: Inhibition of human YAPC cell growth in a cell viability assay.

Structure (SMILES)	IC50
CC(C)c1ccccc1Cc1cc(C(=O)Nc2ccc(S(=O)(=O)c3ccccc3C(C)(C)C)cc2)c(O)c(O)c1O	0.801 µM
CC1(C)CNc2cc(NC(=O)c3cccnc3NCc3ccncc3)ccc21 [MOTESANIB]	> 2 µM

Test system: GCT;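 also: GCT cell line proliferation inhibition, read out with a cell viability assay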
Test: cells
Assay type: functional, cell-based, Homo sapiens
Conditions: Homo sapiens, GCT
Description: SANGER: Inhibition of human GCT cell growth in a cell viability assay.

Structure (SMILES)	IC50
CC(C)c1ccccc1Cc1cc(C(=O)Nc2ccc(S(=O)(=O)c3ccccc3C(C)(C)C)cc2)c(O)c(O)c1O	0.191 µM
CC1(C)CNc2cc(NC(=O)c3cccnc3NCc3ccncc3)ccc21 [MOTESANIB]	> 2 µM

Test system: SK-MEL3;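 also: growth inhibition of human SK-MEL-3 cells, read out with a cell viability assay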
Test: cells
Assay type: functional, cell-based, Homo sapiens, SK-MEL-3
Conditions: Homo sapiens, SK-MEL3
Description: SANGER: Inhibition of human SK-MEL-3 cell growth in a cell viability assay.

Structure (SMILES)	IC50
CC(C)c1ccccc1Cc1cc(C(=O)Nc2ccc(S(=O)(=O)c3ccccc3C(C)(C)C)cc2)c(O)c(O)c1O	0.693 µM
CC1(C)CNc2cc(NC(=O)c3cccnc3NCc3ccncc3)ccc21 [MOTESANIB]	> 2 µM

Test system: MKN-28;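 also: cell viability assay read-out, IC50 reflects suppression of growth of human MKN-28 cells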
Test: cells
Assay type: functional, cell-based, Homo sapiens
Conditions: Homo sapiens, MKN-28
Description: SANGER: Inhibition of human MKN28 cell growth in a cell viability assay.

Structure (SMILES)	IC50
CC(C)c1ccccc1Cc1cc(C(=O)Nc2ccc(S(=O)(=O)c3ccccc3C(C)(C)C)cc2)c(O)c(O)c1O	1.13 µM
CC1(C)CNc2cc(NC(=O)c3cccnc3NCc3ccncc3)ccc21 [MOTESANIB]	> 2 µM

Test system: CAL-85-1;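 also: growth inhibition of human CAL-85-1 cells, read out with a cell viability assay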
Test: cells
Assay type: functional, cell-based, Homo sapiens
Conditions: Homo sapiens, CAL-85-1
Description: SANGER: Inhibition of human CAL-85-1 cell growth in a cell viability assay.

Structure (SMILES)	IC50
CC(C)c1ccccc1Cc1cc(C(=O)Nc2ccc(S(=O)(=O)c3ccccc3C(C)(C)C)cc2)c(O)c(O)c1O	1.43 µM
CC1(C)CNc2cc(NC(=O)c3cccnc3NCc3ccncc3)ccc21 [MOTESANIB]	> 2 µM

Test system: C32;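 also: cell viability assay, with IC50 reflecting inhibition of C32 cell growth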
Test: cells
Assay type: functional, cell-based, Homo sapiens
Conditions: Homo sapiens, C32
Description: SANGER: Inhibition of human C32 cell growth in a cell viability assay.

Structure (SMILES)	IC50
CC(C)c1ccccc1Cc1cc(C(=O)Nc2ccc(S(=O)(=O)c3ccccc3C(C)(C)C)cc2)c(O)c(O)c1O	2.02 µM
CC1(C)CNc2cc(NC(=O)c3cccnc3NCc3ccncc3)ccc21 [MOTESANIB]	> 2 µM

Test system: MDA-MB-361
Test: cells
Assay type: functional, cell-based, Homo sapiens
Conditions: Homo sapiens, MDA-MB-361

Structure (SMILES)	IC50
CC(C)c1ccccc1Cc1cc(C(=O)Nc2ccc(S(=O)(=O)c3ccccc3C(C)(C)C)cc2)c(O)c(O)c1O	0.226 µM
CC1(C)CNc2cc(NC(=O)c3cccnc3NCc3ccncc3)ccc21 [MOTESANIB]	> 2 µM

Test system: DoTc2-4510
Test: cells
Assay type: functional, cell-based, Homo sapiens
Conditions: Homo sapiens, DoTc2-4510

Structure (SMILES)	IC50
CC(C)c1ccccc1Cc1cc(C(=O)Nc2ccc(S(=O)(=O)c3ccccc3C(C)(C)C)cc2)c(O)c(O)c1O	1.48 µM
CC1(C)CNc2cc(NC(=O)c3cccnc3NCc3ccncc3)ccc21 [MOTESANIB]	> 2 µM

Test system: NUGC-3;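 also: growth inhibition of human NUGC-3 cells, read out with a cell viability assay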
Test: cells
Assay type: functional, cell-based, Homo sapiens
Conditions: Homo sapiens, NUGC-3
Description: SANGER: Inhibition of human NUGC-3 cell growth in a cell viability assay.

Structure (SMILES)	IC50
CC(C)c1ccccc1Cc1cc(C(=O)Nc2ccc(S(=O)(=O)c3ccccc3C(C)(C)C)cc2)c(O)c(O)c1O	1.15 µM
CC1(C)CNc2cc(NC(=O)c3cccnc3NCc3ccncc3)ccc21 [MOTESANIB]	> 2 µM

Test system: SW1573;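 also: growth inhibition of SW1573 cells, read out with a cell viability assay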
Test: cells
Assay type: functional, cell-based, Homo sapiens
Conditions: Homo sapiens, SW1573
Description: SANGER: Inhibition of human SW1573 cell growth in a cell viability assay.

Structure (SMILES)	IC50
CC(C)c1ccccc1Cc1cc(C(=O)Nc2ccc(S(=O)(=O)c3ccccc3C(C)(C)C)cc2)c(O)c(O)c1O	0.24 µM
CC1(C)CNc2cc(NC(=O)c3cccnc3NCc3ccncc3)ccc21 [MOTESANIB]	> 2 µM

Test system: D-542MG
Test: cells
Assay type: functional, cell-based, Homo sapiens
Conditions: Homo sapiens, D-542MG
Description: SANGER: Inhibition of human D-542MG cell growth in a cell viability assay.

IC50	Structure (SMILES)
0.462 µM	CC(C)c1ccccc1Cc1cc(C(=O)Nc2ccc(S(=O)(=O)c3ccccc3C(C)(C)C)cc2)c(O)c(O)c1O

Test system: LoVo;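 also: growth inhibition of human LoVo cells, read out with a cell viability assay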
Test: cells
Assay type: functional, cell-based, Homo sapiens
Conditions: Homo sapiens, LoVo
Description: SANGER: Inhibition of human LoVo cell growth in a cell viability assay.

Structure (SMILES)	IC50
CC(C)c1ccccc1Cc1cc(C(=O)Nc2ccc(S(=O)(=O)c3ccccc3C(C)(C)C)cc2)c(O)c(O)c1O	0.161 µM
CC1(C)CNc2cc(NC(=O)c3cccnc3NCc3ccncc3)ccc21 [MOTESANIB]	> 2 µM

Test system: EVSA-T;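 also: growth inhibition of EVSA-T cells, read out with a cell viability assay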
Test: cells
Assay type: functional, cell-based, Homo sapiens
Conditions: Homo sapiens, EVSA-T
Description: SANGER: Inhibition of human EVSA-T cell growth in a cell viability assay.

IC50	Structure (SMILES)
0.14 µM	CC(C)c1ccccc1Cc1cc(C(=O)Nc2ccc(S(=O)(=O)c3ccccc3C(C)(C)C)cc2)c(O)c(O)c1O

Test system: HSC-4;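 also: growth inhibition of human HSC-4 cells, read out with a cell viability assay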
Test: cells
Assay type: functional, cell-based, Homo sapiens
Conditions: Homo sapiens, HSC-4
Description: SANGER: Inhibition of human HSC-4 cell growth in a cell viability assay.

IC50	Structure (SMILES)
0.213 µM	CC(C)c1ccccc1Cc1cc(C(=O)Nc2ccc(S(=O)(=O)c3ccccc3C(C)(C)C)cc2)c(O)c(O)c1O

Test system: NCI-H650;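 also: growth inhibition of NCI-H650 cells, read out by a viability assay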
Test: cells
Assay type: functional, cell-based, Homo sapiens
Conditions: Homo sapiens, NCI-H650
Description: SANGER: Inhibition of human NCI-H650 cell growth in a cell viability assay.

Structure (SMILES)	IC50
CC(C)c1ccccc1Cc1cc(C(=O)Nc2ccc(S(=O)(=O)c3ccccc3C(C)(C)C)cc2)c(O)c(O)c1O	0.646 µM
CC1(C)CNc2cc(NC(=O)c3cccnc3NCc3ccncc3)ccc21 [MOTESANIB]	> 2 µM

Test system: A-375;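 also: growth inhibition of A375 cells, read out with a cell viability assay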
Test: cells
Assay type: functional, cell-based, Homo sapiens
Conditions: Homo sapiens, A-375
Description: SANGER: Inhibition of human A375 cell growth in a cell viability assay.

Structure (SMILES)	IC50
CC(C)c1ccccc1Cc1cc(C(=O)Nc2ccc(S(=O)(=O)c3ccccc3C(C)(C)C)cc2)c(O)c(O)c1O	0.0888 µM
CC1(C)CNc2cc(NC(=O)c3cccnc3NCc3ccncc3)ccc21 [MOTESANIB]	> 2 µM

Test system: DMS-273
Test: cells
Assay type: functional, cell-based, Homo sapiens
Conditions: Homo sapiens, DMS-273
Description: SANGER: Inhibition of human DMS-273 cell growth in a cell viability assay.

Structure (SMILES)	IC50
CC(C)c1ccccc1Cc1cc(C(=O)Nc2ccc(S(=O)(=O)c3ccccc3C(C)(C)C)cc2)c(O)c(O)c1O	0.1 µM
CC1(C)CNc2cc(NC(=O)c3cccnc3NCc3ccncc3)ccc21 [MOTESANIB]	> 2 µM

Test system: ME-180;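 also: cell viability assay measuring growth inhibition of ME-180 cells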
Test: cells
Assay type: functional, cell-based, Homo sapiens
Conditions: Homo sapiens, ME-180
Description: SANGER: Inhibition of human ME-180 cell growth in a cell viability assay.

Structure (SMILES)	IC50
CC1(C)CNc2cc(NC(=O)c3cccnc3NCc3ccncc3)ccc21 [MOTESANIB]	> 2 µM

Test system: SiHa;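 also: Viability-based readout of growth inhibition in SiHa cells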
Test: cells
Assay type: functional, cell-based, Homo sapiens
Conditions: Homo sapiens, SiHa
Description: SANGER: Inhibition of human SiHa cell growth in a cell viability assay.

Structure (SMILES)	IC50
CC(C)c1ccccc1Cc1cc(C(=O)Nc2ccc(S(=O)(=O)c3ccccc3C(C)(C)C)cc2)c(O)c(O)c1O	0.261 µM
CC1(C)CNc2cc(NC(=O)c3cccnc3NCc3ccncc3)ccc21 [MOTESANIB]	> 2 µM

Test system: GAMG;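 also: cell growth inhibition measured by a viability assay in the GAMG human cell line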
Test: cells
Assay type: functional, cell-based, Homo sapiens
Conditions: Homo sapiens, GAMG
Description: SANGER: Inhibition of human GAMG cell growth in a cell viability assay.

Structure (SMILES)	IC50
CC(C)c1ccccc1Cc1cc(C(=O)Nc2ccc(S(=O)(=O)c3ccccc3C(C)(C)C)cc2)c(O)c(O)c1O	0.212 µM
CC1(C)CNc2cc(NC(=O)c3cccnc3NCc3ccncc3)ccc21 [MOTESANIB]	> 2 µM

Test system: HuCCT-1;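 also: growth inhibition of HuCCT-1 cells, read out by a cell viability assay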
Test: cells
Assay type: functional, cell-based, Homo sapiens, HuCCT1
Conditions: Homo sapiens, HuCCT-1
Description: SANGER: Inhibition of human HuCCT1 cell growth in a cell viability assay.

Structure (SMILES)	IC50
CC(C)c1ccccc1Cc1cc(C(=O)Nc2ccc(S(=O)(=O)c3ccccc3C(C)(C)C)cc2)c(O)c(O)c1O	0.348 µM
CC1(C)CNc2cc(NC(=O)c3cccnc3NCc3ccncc3)ccc21 [MOTESANIB]	> 2 µM

Test system: HCC1419;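 also: growth inhibition of human HCC1419 cells, read out as cell viability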
Test: cells
Assay type: functional, cell-based, Homo sapiens
Conditions: Homo sapiens, HCC1419
Description: SANGER: Inhibition of human HCC1419 cell growth in a cell viability assay.

Structure (SMILES)	IC50
CC(C)c1ccccc1Cc1cc(C(=O)Nc2ccc(S(=O)(=O)c3ccccc3C(C)(C)C)cc2)c(O)c(O)c1O	0.918 µM
CC1(C)CNc2cc(NC(=O)c3cccnc3NCc3ccncc3)ccc21 [MOTESANIB]	> 2 µM

Test system: OE33;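 also: growth inhibition of human OE33 cells, measured by a cell viability assay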
Test: cells
Assay type: functional, cell-based, Homo sapiens
Conditions: Homo sapiens, OE33
Description: SANGER: Inhibition of human OE33 cell growth in a cell viability assay.

Structure (SMILES)	IC50
CC(C)c1ccccc1Cc1cc(C(=O)Nc2ccc(S(=O)(=O)c3ccccc3C(C)(C)C)cc2)c(O)c(O)c1O	0.695 µM
CC1(C)CNc2cc(NC(=O)c3cccnc3NCc3ccncc3)ccc21 [MOTESANIB]	> 2 µM

Test system: SCC-25;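 also: growth inhibition of SCC-25 cells, measured with a cell viability assay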
Test: cells
Assay type: functional, cell-based, Homo sapiens
Conditions: Homo sapiens, SCC-25
Description: SANGER: Inhibition of human SCC-25 cell growth in a cell viability assay.

Structure (SMILES)	IC50
CC(C)c1ccccc1Cc1cc(C(=O)Nc2ccc(S(=O)(=O)c3ccccc3C(C)(C)C)cc2)c(O)c(O)c1O	0.523 µM
CC1(C)CNc2cc(NC(=O)c3cccnc3NCc3ccncc3)ccc21 [MOTESANIB]	> 2 µM

Test system: EGI-1;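 also: cell viability readout used to gauge growth inhibition of EGI-1 cells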
Test: cells
Assay type: functional, cell-based, Homo sapiens
Conditions: Homo sapiens, EGI-1
Description: SANGER: Inhibition of human EGI-1 cell growth in a cell viability assay.

Structure (SMILES)	IC50
CC(C)c1ccccc1Cc1cc(C(=O)Nc2ccc(S(=O)(=O)c3ccccc3C(C)(C)C)cc2)c(O)c(O)c1O	1.25 µM
CC1(C)CNc2cc(NC(=O)c3cccnc3NCc3ccncc3)ccc21 [MOTESANIB]	> 2 µM

Test system: A549;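 also: growth inhibition of A549 cells, read out with a cell viability assay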
Test: cells
Assay type: functional, cell-based, Homo sapiens
Conditions: Homo sapiens, A549
Description: SANGER: Inhibition of human A549 cell growth in a cell viability assay.

Structure (SMILES)	IC50
CC(C)c1ccccc1Cc1cc(C(=O)Nc2ccc(S(=O)(=O)c3ccccc3C(C)(C)C)cc2)c(O)c(O)c1O	0.0141 µM
CC1(C)CNc2cc(NC(=O)c3cccnc3NCc3ccncc3)ccc21 [MOTESANIB]	> 2 µM

Test system: A2780;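 also: growth inhibition of A2780 cells, read out with a cell viability assay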
Test: cells
Assay type: functional, cell-based, Homo sapiens
Conditions: Homo sapiens, A2780
Description: SANGER: Inhibition of human A2780 cell growth in a cell viability assay.

Structure (SMILES)	IC50
CC(C)c1ccccc1Cc1cc(C(=O)Nc2ccc(S(=O)(=O)c3ccccc3C(C)(C)C)cc2)c(O)c(O)c1O	0.218 µM
CC1(C)CNc2cc(NC(=O)c3cccnc3NCc3ccncc3)ccc21 [MOTESANIB]	> 2 µM

Test system: SBC-5;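 also: cell viability assay read-out, IC50 is the concentration that inhibits growth of the cells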
Test: cells
Assay type: functional, cell-based, Homo sapiens
Conditions: Homo sapiens, SBC-5
Description: SANGER: Inhibition of human SBC-5 cell growth in a cell viability assay.

Structure (SMILES)	IC50
CC(C)c1ccccc1Cc1cc(C(=O)Nc2ccc(S(=O)(=O)c3ccccc3C(C)(C)C)cc2)c(O)c(O)c1O	0.147 µM
CC1(C)CNc2cc(NC(=O)c3cccnc3NCc3ccncc3)ccc21 [MOTESANIB]	> 2 µM

Test system: PC-3;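 also: cell viability assay measuring growth inhibition of PC-3 cells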
Test: cells
Assay type: functional, cell-based, Homo sapiens
Conditions: Homo sapiens, PC-3
Description: SANGER: Inhibition of human PC-3 cell growth in a cell viability assay.

Structure (SMILES)	IC50
CC(C)c1ccccc1Cc1cc(C(=O)Nc2ccc(S(=O)(=O)c3ccccc3C(C)(C)C)cc2)c(O)c(O)c1O	0.715 µM
CC1(C)CNc2cc(NC(=O)c3cccnc3NCc3ccncc3)ccc21 [MOTESANIB]	> 2 µM

Test system: H4
Test: cells
Assay type: functional, cell-based, Homo sapiens
Conditions: Homo sapiens, H4
Description: SANGER: Inhibition of human H4 cell growth in a cell viability assay.

Structure (SMILES)	IC50
CC(C)c1ccccc1Cc1cc(C(=O)Nc2ccc(S(=O)(=O)c3ccccc3C(C)(C)C)cc2)c(O)c(O)c1O	0.408 µM
CC1(C)CNc2cc(NC(=O)c3cccnc3NCc3ccncc3)ccc21 [MOTESANIB]	> 2 µM

Test system: BFTC-909
Test: cells
Assay type: functional, cell-based, Homo sapiens
Conditions: Homo sapiens, BFTC-909
Description: SANGER: Inhibition of human BFTC-909 cell growth in a cell viability assay.

Structure (SMILES)	IC50
CC(C)c1ccccc1Cc1cc(C(=O)Nc2ccc(S(=O)(=O)c3ccccc3C(C)(C)C)cc2)c(O)c(O)c1O	0.258 µM
CC1(C)CNc2cc(NC(=O)c3cccnc3NCc3ccncc3)ccc21 [MOTESANIB]	> 2 µM

Test system: KYSE-270;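 also: cell growth inhibition measured with a viability assay in the human KYSE-270 line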
Test: cells
Assay type: functional, cell-based, Homo sapiens
Conditions: Homo sapiens, KYSE-270
Description: SANGER: Inhibition of human KYSE-270 cell growth in a cell viability assay.

Structure (SMILES)	IC50
CC(C)c1ccccc1Cc1cc(C(=O)Nc2ccc(S(=O)(=O)c3ccccc3C(C)(C)C)cc2)c(O)c(O)c1O	1.08 µM
CC1(C)CNc2cc(NC(=O)c3cccnc3NCc3ccncc3)ccc21 [MOTESANIB]	> 2 µM
